Measurements taken from US20070178516A1, “Self-addressable self-assembling microelectronic integrated systems, component devices, mechanisms, methods, and procedures for molecular biological analysis and diagnostics” (NANOGEN, INC., priority 1993, published 2007).
{Amino} = amino group added with ABI Aminolink 2 reagent, reacts with dyes such as Texas Red

Tested on: ET-10AL capture sequence
Assay: Electronically controlled fluorescent DNA/dye (ethidium bromide) detection
Type: binding
Conditions: capture ET-10AL; peak EB fluorescence after positive bias 0.05 mA, 0.03 Volt-Hours
Experimental: Microcapillary test devices were prepared and hybridized as described in Example 2 and 3. Ethidium bromide (EB) was added to the buffer solution (˜0.05 mM EB final concentration) and the test devices were biased negative to concentrate EB (positively charged) at both the hybridized and un-hybridized microlocations. The test devices were observed by epifluorescece microscopy at 550 nm excitation and 600 nm emission.
The test devices were re-mounted biased positive
constant current at 0.05 mA for 0.03 Volt-Hours, to selectively remove the EB. Fluorescence at the un-hybridized microlocations diminished while the hybridized microlocations retained a very high level of EB fluorescence. The results are given below:
Fluorescent signal was measured using an ICCD imaging
camera system and represent peak fluorescent intensities. The signal to noise ratio would be more than 1000 fold if the entire fluorescent signal area was integrated.

Molecule | Normalized Signal
5′-Amino-CCT GCT CAT GAG TCT CTC (CCTGCTCATGAGTCTCTC; DNA, 5' {Amino}, backbone not given here; further chemistry not fully specified) [ET-11AL] | >200
5′-Amino-TGCGAGCTGCAGTCAGACAT (TGCGAGCTGCAGTCAGACAT; DNA, 5' {Amino}, backbone not given here; further chemistry not fully specified) [ET-21A] | 1

Tested on: not listed separately
Assay: Conductivity measurements of transport buffers
Type: physicochemical
Conditions: not given

Molecule | Average/Std. Deviation (conductivity) | Measurement 1 (conductivity) | Measurement 2 (conductivity) | Measurement 3 (conductivity)
[Cl-].[Cl-].[Mg+2] [0.1 mM MgCl2, MgCl2] | 17.3 +/− 0.87 μS/cm | 16.9 μS/cm | 16.7 μS/cm | 18.3 μS/cm
[Cl-].[Na+] [0.1 mM NaCl, NaCl] | 9.43 +/− 0.93 μS/cm | 8.80 μS/cm | 8.98 μS/cm | 10.5 μS/cm
[Cl-].[Cl-].[Mg+2] [1 mM MgCl2, MgCl2] | 186 +/− 18.8 μS/cm | 174 μS/cm | 208 μS/cm | 177 μS/cm
[Cl-].[Na+] [1 mM NaCl, NaCl] | 112.7 +/− 2.08 μS/cm | 112 μS/cm | 115 μS/cm | 111 μS/cm
O=C([O-])CCC(=O)[O-].[Na+].[Na+] [5 mM NaSuccinate, NaSuccinate] | 1.01 +/− 0.045 mS/cm | 1.05 mS/cm | 960 μS/cm | 1.01 mS/cm
NC(CO)(CO)CO [10 mM TRIS, TRIS] | 572 +/− 10.5 μS/cm | 572 μS/cm | 562 μS/cm | 583 μS/cm
O=S(=O)(O)CCN1CCN(CCO)CC1 [25 mM HEPES, HEPES] | 9.7 +/− 0.71 μS/cm | 9.16 μS/cm | 9.44 μS/cm | 10.5 μS/cm
N[C@@H](CS)C(=O)O [250 mM Cysteine, Cysteine] | 22.7 +/− 5.09 μS/cm | 27.4 μS/cm | 17.3 μS/cm | 23.5 μS/cm
NaPO4 [1 mM NaPO4] | 128.7 +/− 7.0 μS/cm | 122 μS/cm | 128 μS/cm | 136 μS/cm
NaPO4 [10 mM NaPO4] | 1.44 +/− 0.04 mS/cm | 1.40 mS/cm | 1.44 mS/cm | 1.48 mS/cm
NaPO4 [20 mM NaPO4] | 2.90 +/− 0.11 mS/cm | 2.90 mS/cm | 2.79 mS/cm | 3.00 mS/cm

Same assay, conditions: 20 mM sodium phosphate

Molecule | conductance [mS/cm]
O=P(O)(O)O [NaPO4, Sodium Phosphate] | ~2.9

Same assay, conditions: 250 mM cysteine solution, pH 4 to 6 range

Molecule | conductance [μS/cm]
N[C@@H](CS)C(=O)O [Cysteine] | ~23

Tested on: not given
Assay: not given
Conditions: not told

Molecule | pH above the surface of the permeation layer
N[C@@H](Cc1c[nH]cn1)C(=O)O [Histidine] | > 5
c1c[nH]cn1 [imidazole] | > 5

Tested on: not given
Assay: not given
Conditions: cited from earlier work

Molecule | pKa (first listed) | pKa (second listed) | pKa (third listed)
Cn1cncc1C[C@H](N)C(=O)O [1(π)-methylhistidine] | 1.64, | 6.46, | 8.61^3
Cn1cnc(C[C@H](N)C(=O)O)c1 [3(τ)-methylhistidine] | 1.70, | 5.87, | 9.16^3
NCCC(=O)O [β-Alanine] |  | 10.19 | 
